Test results taken from US20150307543A1, “POLYMORPH” (ONCOLOGY RESEARCH INTERNATIONAL LIMITED, priority 2012, published 2015).

Experiments:
Format in all cases: physicochemical
[1] = Dissolution analysis in ethanol (% transmission until complete dissolution); conditions: set amount in ethanol with stirring, until % transmission reached 100%, FIG. 6
Procedure: In order to test the solubility of the polymorphs produced in examples 1 and 2 a set amount of the material was added to ethanol with stirring and the % transmission of the mixture thus monitored until the % transmission reached 100% (which indicated complete dissolution). The 3 materials tested were (1) compound I hydrate, (2) the polymorphic form of compound I of the invention and (3) the polymorphic form of compound I isolated from methanol. The results of this experiment were detailed in FIG. 6. […] In contrast the dissolution profile of the polymorphic form of the invention is much slower taking almost 8 times as long to reach full dissolution.

[2] = Bulk density and tap density; conditions: for Weight of 5.0 cm^3 of Solid: untapped; for Tapped density: after tapping 50 times; for Bulk density: calculated from weight of 5.0 cm^3 of solid; for Volume after tapped 50 times: starting volume 5.0 cm^3, tapped 50 times
Procedure: A comparative study of the bulk density and the tapped density of the 3 solid forms of compound one were carried out. The 3 materials tested were (1) compound I hydrate, (2) the polymorphic form of compound I of the invention and (3) the polymorphic form of compound I isolated from methanol. The tests indicated the weight of material in 5.0 cm^3 of solid (g) to calculate the bulk density. This was then tapped 50 times and the tapped density calculated.

[3] = Dynamic vapour sorption (DVS) at 25° C.; conditions: 0% to 95% RH; for total moisture uptake (percent change in mass based on dry mass): first cycle
Procedure: A comparative study of the dynamic vapour sorption (DVS) of the 3 solid forms of compound one were carried out. The 3 materials tested were (1) compound I hydrate, (2) the polymorphic form of compound I of the invention and (3) the polymorphic form of compound I isolated from methanol. The samples were analysed on a DVS automated moisture sorption instrument at 25° C. with sample sizes of 25-52 mg for the analysis. The samples were initially dried for 300 minutes under a continuous flow of air to establish the dry mass. The samples were then exposed to the following typical partial pressure profile: 0% to 90% RH in 10% steps and then followed by a 5% step to 95%. The partial pressure was then decreased in a similar manner.
Typical net percent change in mass (based on dry mass) versus time plots for the first cycle at 25° C. for the three samples are shown in FIGS. 7, 9 and 11. […] The line plotted on the left y-axis, indicates the percentage change in mass referenced to the dry mass (after initial drying stage), m0, as a function of time. The other line, plotted on the right y-axis, traces the requested % partial pressure of water vapour in the DVS as a function of time.
The isotherm plots display the percent change in mass (referenced from the dry mass, m0) versus the requested relative humidity.
For all the RH steps, the instrument was run in a dm/dt mode (mass variation over time variation). A fixed dm/dt value of 0.002% min-1 was selected. This criterion permits the DVS software to automatically determine when equilibrium has been reached and complete a relative humidity step. When the rate of change of mass falls below this threshold over a determined period of time, the humidity will proceed to the next programmed level. A maximum stage time of 360 minutes and a minimum stage time of 10 minutes were selected for this experiment.

[4] = listed as polymorphic form of the invention

CC1O[C@@H](OC2C(O)[C@H](O)C(CO)O[C@H]2O[C@H]2CC[C@@]3(C)C(=CC[C@H]4[C@@H]5C[C@@H]6O[C@]7(CC[C@@H](C)CO7)[C@@H](C)[C@@H]6[C@@]5(C)CC[C@@H]43)C2)C(O)C(O)[C@H]1O (stereo partly drawn) [Form 2, diosgenyl α-L-rhamnopyranosyl-(1->2)-β-D-glucopyranoside]
time to reach full dissolution, relative to the other forms [1]: ~8 times as long
dissolution rate / dissolution profile (in words) [1, 4]: much slower
Weight of 5.0 cm^3 of Solid ([2]; listed as 2): 1.489 g
Tapped density ([2]; listed as 2): 0.41 g/mL
Bulk density ([2]; listed as 2): 0.30 g/mL
Volume after tapped 50 times ([2]; listed as 2): 3.6 cm^3
total moisture uptake (percent change in mass based on dry mass) [3, 4]: about 0.55%
percentage of water uptake (in words) [3, 4]: low

CC1O[C@@H](OC2C(O)[C@H](O)C(CO)O[C@H]2O[C@H]2CC[C@@]3(C)C(=CC[C@H]4[C@@H]5C[C@@H]6O[C@]7(CC[C@@H](C)CO7)[C@@H](C)[C@@H]6[C@@]5(C)CC[C@@H]43)C2)C(O)C(O)[C@H]1O (stereo partly drawn) [Form 1, diosgenyl α-L-rhamnopyranosyl-(1->2)-β-D-glucopyranoside]
dissolution rate / dissolution profile (in words) ([1]; listed as hydrate): fastest
Weight of 5.0 cm^3 of Solid ([2]; listed as 1): 1.430 g
Tapped density ([2]; listed as 1): 0.37 g/mL
Bulk density ([2]; listed as 1): 0.29 g/mL
Volume after tapped 50 times ([2]; listed as 1): 3.9 cm^3
total moisture uptake (percent change in mass based on dry mass) ([3]; listed as anhydrate): about 5.2%
percentage of water uptake (in words) ([3]; listed as hydrate): relatively high

CC1O[C@@H](OC2C(O)[C@H](O)C(CO)O[C@H]2O[C@H]2CC[C@@]3(C)C(=CC[C@H]4[C@@H]5C[C@@H]6O[C@]7(CC[C@@H](C)CO7)[C@@H](C)[C@@H]6[C@@]5(C)CC[C@@H]43)C2)C(O)C(O)[C@H]1O (stereo partly drawn) [Form 3, diosgenyl α-L-rhamnopyranosyl-(1->2)-β-D-glucopyranoside]
dissolution rate / dissolution profile (in words) ([1]; listed as polymorphic form isolated from methanol): very rapid
Weight of 5.0 cm^3 of Solid ([2]; listed as 3): 0.847 g
Tapped density ([2]; listed as 3): 0.26 g/mL
Bulk density ([2]; listed as 3): 0.17 g/mL
Volume after tapped 50 times ([2]; listed as 3): 3.2 cm^3
total moisture uptake (percent change in mass based on dry mass) ([3]; listed as polymorph from methanol): about 2.5%
percentage of water uptake (in words) ([3]; listed as polymorph obtained from methanol): relatively high
